Values after ≈ are worked out from the molar mass of the structure shown. “Also recorded” adds a separate entry of the source. Like-named read-outs stand apart in the source and are kept apart here.
Assays:
[1] = Water solubility of 1-dialkylphosphinoylalkanes; type: physicochemical; conditions: R1R2R3P=O, by R1,R2 and R3
[2] = target: T1, cloned hTRPM8 channel (human TRPM8 gene, expressed in CHO cells) (Homo sapiens, UniProt Q7Z2W7); assay: TRPM8 agonist activity, Fluo-8 calcium FLIPR assay; type: cell-based; conditions: for Potency relative to menthol / EC50: p-menthane compounds, Table 8; for EC50: 95% limits printed in line below; for Relative Potency to L-menthol: from TRPM8 EC50, menthol = 1.0
T1 construct: host or cells: CHO cells
T1 sequence (Q7Z2W7 whole entry): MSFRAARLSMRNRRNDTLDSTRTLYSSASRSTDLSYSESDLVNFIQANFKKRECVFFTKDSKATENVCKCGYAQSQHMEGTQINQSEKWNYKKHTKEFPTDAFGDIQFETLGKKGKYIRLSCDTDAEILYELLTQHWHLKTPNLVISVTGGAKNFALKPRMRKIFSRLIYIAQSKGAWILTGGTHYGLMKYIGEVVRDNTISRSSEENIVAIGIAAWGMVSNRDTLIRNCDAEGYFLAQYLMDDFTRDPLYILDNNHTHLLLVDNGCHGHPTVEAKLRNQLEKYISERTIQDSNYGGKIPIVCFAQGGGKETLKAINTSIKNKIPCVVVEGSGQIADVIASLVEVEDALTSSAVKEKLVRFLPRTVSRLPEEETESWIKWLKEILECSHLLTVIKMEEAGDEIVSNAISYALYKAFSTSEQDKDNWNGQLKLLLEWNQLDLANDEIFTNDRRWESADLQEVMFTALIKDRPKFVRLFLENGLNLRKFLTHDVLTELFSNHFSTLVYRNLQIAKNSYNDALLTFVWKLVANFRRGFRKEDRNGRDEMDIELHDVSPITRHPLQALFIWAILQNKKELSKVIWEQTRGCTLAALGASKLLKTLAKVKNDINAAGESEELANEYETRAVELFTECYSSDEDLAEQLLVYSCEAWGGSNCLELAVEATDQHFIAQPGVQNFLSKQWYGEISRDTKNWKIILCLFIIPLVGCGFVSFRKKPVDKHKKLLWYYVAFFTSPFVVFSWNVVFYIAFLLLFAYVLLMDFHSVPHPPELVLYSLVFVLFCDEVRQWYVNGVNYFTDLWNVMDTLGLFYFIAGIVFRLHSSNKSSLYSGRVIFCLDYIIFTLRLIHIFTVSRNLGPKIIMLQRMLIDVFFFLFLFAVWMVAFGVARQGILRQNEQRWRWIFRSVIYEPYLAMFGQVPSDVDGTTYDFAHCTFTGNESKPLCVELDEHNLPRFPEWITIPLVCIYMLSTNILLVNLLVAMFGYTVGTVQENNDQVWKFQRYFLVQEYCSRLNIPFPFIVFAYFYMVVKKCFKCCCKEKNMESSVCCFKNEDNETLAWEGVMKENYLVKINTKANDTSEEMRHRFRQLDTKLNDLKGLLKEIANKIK
Experimental: In the first set of data, the potency and in vitro effects of test compounds were evaluated on cloned hTRPM8 channel (encoded by the human TRPM8 gene, expressed in CHO cells) using a Fluo-8 calcium kit and a Fluorescence Imaging Plate Reader (FLIPR^TETRATM) instrument. […] Test solutions were in HEPES-buffered saline, 384-well plates, and placed into the FLIPR instrument (Molecular Devices Corporation, Union City, Calif., USA). […] The test cells were Chinese Hamster Ovary (CHO) cells stably transfected with human TRPM8 cDNAs. The concentration-response data were analyzed via FLIPR Control software and fitted to a Hill equation for the EC50.

[3] = tested on: throat (Adam's apple, jugular notch, upper chest); type: in vivo, human; parameters: key to Jugular Notch / Sternum: cooling rated on a 0-3 scale; Onset: unit not given here; conditions: for Duraton: duration of cooling after swallowing Shaped-Gel; for Discomfort: in vivo; for Onset: onset of cooling after swallowing Shaped-Gel, no unit in head (min); for Jugular Notch: cooling felt at jugular notch
Experimental: Shaped-Gel having total weight of 0.4 to 1.2 g containing 0.4 to 1.5% by weight (5 mg/g to 15 mg/g) are prepared and tested. The following examples illustrate the invention, but are not intended to limit the scope of the present invention. A Shaped-Gel in accordance with the present invention was prepared with the following composition.
Shaped-Gels were prepared by these procedures. First step, the cooling agent was accurately weighed and place in a 60 mL plastic container. Then glycerol, water, and gelatin was added to the container and centrifuged for 2 min in a SpeedMixer (FlackTek, Inc.) at 3000 rpm. Then gelatin powder was added and the mixture centrifuged for 3 min. The container was warmed by placing it in a beaker containing hot water (80-85° C.) for 15 min. The container was then centrifuged for 5 min. The liquid mix was cooled and dispensed onto silicon molds with a plastic dropper, and placed in a refrigerator. After one hour, the gels were solidified, removed from the mold with a plastic tweezer, weighed and placed on wax paper and later stored in blister pockets. […] In preliminary studies, the shape of the Shaped-Gel was varied. Square, rectangular, spherical, hemispherical, toroidal, and pentagram Shaped-Gels were prepared at sizes ranging from 0.4 to 1.2 g. A flat shape wherein the shortest diameter was about 20% of the longest axis was preferred because it could be placed flat on the back of the tongue. A Shaped-Gel shaped as a rectangular prism of 2.75 mm×15 mm×15 mm=0.63 cm3 and weighing ˜0.6 g was acceptable to subjects. A toroid, much like a “LiveSaver” mint was also acceptable if the size was ˜0.8 g. Test Panel: The volunteers for testing the Shaped-Gel were six subjects, four males and two females, aged 50 to 76 years. Each Shaped-Gel was tested for at least four trials in at least three subjects. The concentration of the cooling agent in the Shaped-Gel varied from 0.5 to 2%. The duration of observation for each trial usually lasted for not more than 1.5 hours. Subjects were instructed to swallow the Shaped-Gel with a sip of […] water. Cooling sensations were rated on a scale of 0, 1, 2, 3, at intervals of 3 min, 5 min, and then at 10 min intervals. If a cooling value exceeded 2, the subject noted whether the cooling was felt at the level of the Adam's apple, jugular notch or upper chest. Ancillary effects were also recorded.

Philtrum Skin = assay: Cooling on philtrum skin; type: in vivo; conditions: p-menthane compounds, Table 8
Eyelids Surfaces = assay: Cooling on eyelid surfaces; type: in vivo; conditions: p-menthane compounds, Table 8
Oral Cavity and Pharynx [4] = assay: Study 2: sensory qualities of compounds applied to oral cavity and pharynx; type: in vivo, human; conditions: for sensations produced (cooling intensity, cold discomfort, adverse taste): ~0.8 mL per dose to base of tongue, four volunteers
Experimental: Tests were on four volunteers, with 3 to 5 trials per substance. Compounds were prepared in cherry-flavored Shaped-Gel at 5 mg/mL and administered ˜0.8 mL per dose with a 2 mL plastic vial to the base of the tongue. The subjects asked to rate the sensations for cooling intensity, cold discomfort and adverse taste.

[5] = target: T2, TRPV1 channels (human TRPV1 gene expressed in HEK293 cells) (Homo sapiens, UniProt Q8NER1); conditions: data in Yang et al. BMC Ophthalmology 17:101 and Wei US 9,956,232; cited from earlier work
T2 construct: expressed in transfected cells; host or cells: HEK293 cells
T2 sequence (Q8NER1 whole entry): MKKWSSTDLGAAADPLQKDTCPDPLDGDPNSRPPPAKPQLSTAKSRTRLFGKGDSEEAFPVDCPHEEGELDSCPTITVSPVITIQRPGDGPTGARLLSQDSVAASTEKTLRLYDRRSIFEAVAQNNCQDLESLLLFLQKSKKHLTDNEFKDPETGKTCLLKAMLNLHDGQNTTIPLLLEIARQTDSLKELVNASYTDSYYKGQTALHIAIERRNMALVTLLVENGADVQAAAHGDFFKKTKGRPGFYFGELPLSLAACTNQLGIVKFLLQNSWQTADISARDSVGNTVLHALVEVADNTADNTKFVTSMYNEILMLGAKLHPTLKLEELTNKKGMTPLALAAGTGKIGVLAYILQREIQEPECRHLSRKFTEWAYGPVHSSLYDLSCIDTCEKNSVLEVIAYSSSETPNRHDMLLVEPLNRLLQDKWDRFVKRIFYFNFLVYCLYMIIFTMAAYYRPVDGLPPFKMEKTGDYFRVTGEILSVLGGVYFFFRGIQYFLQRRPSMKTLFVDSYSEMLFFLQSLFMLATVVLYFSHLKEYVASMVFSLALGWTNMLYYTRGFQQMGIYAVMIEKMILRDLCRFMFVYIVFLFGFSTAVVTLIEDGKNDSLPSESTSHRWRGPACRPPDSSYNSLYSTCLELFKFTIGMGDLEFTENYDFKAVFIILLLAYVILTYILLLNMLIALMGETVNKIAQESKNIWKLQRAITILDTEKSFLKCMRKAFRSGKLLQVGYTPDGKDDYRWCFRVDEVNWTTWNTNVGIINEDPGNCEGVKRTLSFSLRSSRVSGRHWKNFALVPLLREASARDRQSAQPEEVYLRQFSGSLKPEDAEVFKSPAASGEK

[6] = target: T3, TRPA1 channels (human TRPA1 gene expressed in CHO cells) (Homo sapiens, UniProt O75762); conditions: data in Yang et al. BMC Ophthalmology 17:101 and Wei US 9,956,232; cited from earlier work
T3 construct: expressed in transfected cells; host or cells: CHO cells
T3 sequence (O75762 whole entry): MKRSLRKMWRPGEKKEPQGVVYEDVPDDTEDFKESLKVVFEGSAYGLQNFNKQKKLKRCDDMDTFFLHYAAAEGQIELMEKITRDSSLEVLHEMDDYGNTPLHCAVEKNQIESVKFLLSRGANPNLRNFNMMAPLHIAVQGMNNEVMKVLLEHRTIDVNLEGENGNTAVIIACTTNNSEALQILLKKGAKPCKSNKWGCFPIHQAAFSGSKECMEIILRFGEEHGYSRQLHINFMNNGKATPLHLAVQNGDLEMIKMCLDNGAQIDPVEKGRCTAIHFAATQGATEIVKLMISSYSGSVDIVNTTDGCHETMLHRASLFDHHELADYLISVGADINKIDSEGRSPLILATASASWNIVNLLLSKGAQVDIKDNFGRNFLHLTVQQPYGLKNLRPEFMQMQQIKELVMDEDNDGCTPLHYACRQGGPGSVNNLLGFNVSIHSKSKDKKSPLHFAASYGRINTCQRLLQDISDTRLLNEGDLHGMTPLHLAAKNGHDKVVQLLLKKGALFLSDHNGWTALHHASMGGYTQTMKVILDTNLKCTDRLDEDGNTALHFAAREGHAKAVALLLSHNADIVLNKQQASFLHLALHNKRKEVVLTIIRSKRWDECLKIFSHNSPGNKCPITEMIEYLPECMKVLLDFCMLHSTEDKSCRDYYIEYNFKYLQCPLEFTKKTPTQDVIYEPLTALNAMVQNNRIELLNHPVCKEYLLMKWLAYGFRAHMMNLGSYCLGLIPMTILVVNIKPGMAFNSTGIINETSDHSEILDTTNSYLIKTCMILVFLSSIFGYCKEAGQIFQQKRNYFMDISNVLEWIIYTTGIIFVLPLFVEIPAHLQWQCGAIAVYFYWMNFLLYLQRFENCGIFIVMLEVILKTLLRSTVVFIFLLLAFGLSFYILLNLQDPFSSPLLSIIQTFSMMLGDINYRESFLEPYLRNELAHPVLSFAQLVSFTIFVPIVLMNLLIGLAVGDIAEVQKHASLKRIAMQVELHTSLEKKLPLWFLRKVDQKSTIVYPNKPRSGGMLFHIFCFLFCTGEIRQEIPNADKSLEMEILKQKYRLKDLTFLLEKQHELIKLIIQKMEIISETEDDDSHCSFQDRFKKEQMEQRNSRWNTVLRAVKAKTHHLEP

Oral Cavity and Pharynx [7] = assay: Study 2: sensory qualities of compounds applied to oral cavity and pharynx; type: in vivo, human

CCCCCCC[P@@](=O)(C(C)C)C(C)CC (stereo partly drawn) [3,4-7, 1-(Isopropyl-sec-butyl)-phosphinoyl-heptane]
solubility [1]: 20 mg/mL (≈ 81.2 mM)

CC(C)OC(=O)CNC(=O)[C@@H]1C[C@H](C)CC[C@H]1C(C)C [Ax-8]
Potency relative to menthol [2]: 7.6
EC50 [2]: 500 nM
Duraton [3]: 35 min
Discomfort [3]: yes
Onset [3]: 5
Philtrum Skin (Philtrum Skin): 27 min
Eyelids Surfaces (Eyelids Surfaces): 300 min

CCOC(=O)C(C)NC(=O)[C@@H]1C[C@H](C)CC[C@H]1C(C)C (stereo partly drawn) [D-Ala-OEt]
Potency relative to menthol [2]: 14.0
Philtrum Skin (Philtrum Skin): 103 min
Eyelids Surfaces (Eyelids Surfaces): 180 min

CC(C)OC(=O)C(C)NC(=O)[C@@H]1C[C@H](C)CC[C@H]1C(C)C (stereo partly drawn) [D-Ala-OiPr]
Potency relative to menthol [2]: 14.6
Philtrum Skin (Philtrum Skin): 34 min
Eyelids Surfaces (Eyelids Surfaces): 360 min

CCCCP(=O)(C(C)CC)C(C)CC (stereo not drawn) [DAPA-2-4, 1-Di(sec-butyl)-phosphinoyl-butane]
Relative Potency to L-menthol [2]: 0.3

CCCCCP(=O)(C(C)CC)C(C)CC (stereo not drawn) [DAPA-2-5, 1-di-sec-butyl-phosphorylpentane]
Relative Potency to L-menthol [2]: 2.2

CCCCCCP(=O)(C(C)CC)C(C)CC (stereo not drawn) [DAPA-2-6, 1-Di(sec-butyl)-phosphinoyl-hexane]
Relative Potency to L-menthol [2]: 4.7
unpleasant taste, description (Oral Cavity and Pharynx [4]; 5 mg/mL): “metallic”, “organic solvent-like”, and “harsh”
sensations produced (cooling intensity, cold discomfort, adverse taste) (Oral Cavity and Pharynx [4]; 5 mg/mL): cold, icy cold, and adverse tastes
Adam's Apple ([3]; cooling felt at Adam's apple, Shaped-Gel): +++ icy
Jugular Notch ([3]; Shaped-Gel): ++ icy
Duraton [3]: 30 min
Discomfort [3]: yes
Onset [3]: <3

CCCCCCCP(=O)(C(C)CC)C(C)CC (stereo not drawn) [DAPA-2-7, 1-Di(sec-butyl)-phosphinoyl-heptane]
Relative Potency to L-menthol [2]: 3.4
unpleasant taste, description (Oral Cavity and Pharynx [4]; 5 mg/mL): “metallic”, “organic solvent-like”, and “harsh”
sensations produced (cooling intensity, cold discomfort, adverse taste) (Oral Cavity and Pharynx [4]; 5 mg/mL): cold, icy cold, and adverse tastes

CCCCCCCCP(=O)(C(C)CC)C(C)CC (stereo not drawn) [DAPA-2-8, 1-Di(sec-butyl)-phosphinoyl-octane]
Relative Potency to L-menthol [2]: 2.9
unpleasant taste, description (Oral Cavity and Pharynx [4]; 5 mg/mL): “metallic”, “organic solvent-like”, and “harsh”

CCCCCP(=O)(CC(C)C)CC(C)C [DAPA-3-1, 1-di(iso-butyl) phosphinoyl-pentane]
TRPM8 potency / bioactivity in words [2]: significant loss of bioactivity
Relative Potency to L-menthol [2]: 0.2

CCC(C)P(=O)(CCC(C)C)C(C)CC (stereo not drawn) [DAPA-3-2, 1-Di(sec-butyl)-phosphinoyl-3-methyl-butane]
TRPM8 potency / bioactivity in words [2]: significant loss of bioactivity
Relative Potency to L-menthol [2]: 0.9

CCCCCP(=O)(C(C)C)C(C)C [DIPA-1-5, 1-Di(isopropyl)-phosphinoyl-pentane]
Relative Potency to L-menthol [2]: 0.7

CCCCCCP(=O)(C(C)C)C(C)C [DIPA-1-6, 1-Di(isopropyl)-phosphinoyl-hexane]
Relative Potency to L-menthol [2]: 1.6

CCCCCCCP(=O)(C(C)C)C(C)C [DIPA-1-7, 1-Di(isopropyl)-phosphinoyl-heptane]
Relative Potency to L-menthol [2]: 5.4
cold discomfort (Oral Cavity and Pharynx [4]; 5 mg/mL): icy cold; also recorded: icy pain in the back of the throat
unpleasant taste, description (Oral Cavity and Pharynx [4]; 5 mg/mL): “metallic”, “organic solvent-like”, and “harsh”
sensations produced (cooling intensity, cold discomfort, adverse taste) (Oral Cavity and Pharynx [4]; 5 mg/mL): cold, icy cold, and adverse tastes
strong metallic taste (Oral Cavity and Pharynx [4]; in vivo): present
selectivity: TRPM8 versus TRPV1 [5]: Selectivity is also seen
selectivity: TRPM8 versus TRPA1 [6]: Selectivity is also seen

CCCCCCCCP(=O)(C(C)C)C(C)C [DIPA-1-8, 1-Di(isopropyl)-phosphinoyl-octane]
Relative Potency to L-menthol [2]: 5.4
unpleasant taste, description (Oral Cavity and Pharynx [4]; 5 mg/mL): “metallic”, “organic solvent-like”, and “harsh”
sensations produced (cooling intensity, cold discomfort, adverse taste) (Oral Cavity and Pharynx [4]; 5 mg/mL): cold, icy cold, and adverse tastes
strong metallic taste (Oral Cavity and Pharynx [4]; in vivo): present
selectivity: TRPM8 versus TRPV1 [5]: Selectivity is also seen
selectivity: TRPM8 versus TRPA1 [6]: Selectivity is also seen

CCCCCCCCCP(=O)(C(C)C)C(C)C [DIPA-1-9, 1-Di(isopropyl)-phosphinoyl-nonane]
Relative Potency to L-menthol [2]: 4.0
sensations produced (cooling intensity, cold discomfort, adverse taste) (Oral Cavity and Pharynx [4]; 5 mg/mL): coolness and cold which was well-tolerated
general sense of refreshment in the throat, persistence (Oral Cavity and Pharynx [4]; in vivo): ≥ 3 h
strong metallic taste (Oral Cavity and Pharynx [4]; in vivo): does not have a strong metallic taste
onset of sensation of coolness in the throat ([3]; Shaped-Gel applied to base of tongue): 3 min
Discomfort ([3]; both, human): 0
Duraton [3]: ~60 min
Onset [3]: <3
selectivity: TRPM8 versus TRPV1 [5]: selective for TRPM8 and not TRPVI and TRPA1
selectivity: TRPM8 versus TRPA1 [6]: selective for TRPM8 and not TRPVI and TRPA1
icy cold, pain or discomfort at increased concentration (Oral Cavity and Pharynx [7]; 5, 8 to 15 mg/mL, 0.8 mL per dose): no pain or discomfort; also recorded: did not produce icy cold or pain
sensation in the oropharynx and esophagus (Oral Cavity and Pharynx [7]; optimized concentrations of 5 to 10 mg/mL): perfect cool in the oropharynx and esophagus but without cold discomfort

CCOC(=O)CNC(=O)[C@@H]1C[C@H](C)CC[C@H]1C(C)C [WS-5]
Potency relative to menthol [2]: 10.6
EC50 [2]: 360 nM
Discomfort ([3]; both, human): 0
Duraton [3]: 25 min
Onset [3]: ~3
Philtrum Skin (Philtrum Skin): 24 min
Eyelids Surfaces (Eyelids Surfaces): 15 min

COc1ccc(NC(=O)[C@@H]2C[C@H](C)CC[C@H]2C(C)C)cc1 [WS-12]
Jugular Notch ([3]; Shaped-Gel): 0
Sternum ([3]; cooling felt at sternum, Shaped-Gel): 0
Duraton [3]: 20 min
Discomfort [3]: 0
Onset [3]: 5

CC1CCC(C(C)C)C(C(=O)OCC(O)CO)C1 (stereo not drawn) [WS-30]
Duraton [3]: 25 min
Discomfort [3]: 0
Onset [3]: ~3

From patent publication US20220378807A1, “DELIVERY OF A COOLING AGENT TO THE PHARYNGEAL-ESOPHAGEAL SURFACE” (priority 2019, published 2022)
